System: E. coli strain W3110
Assay: Synergy assays: Biolog chemical sensitivity panels with Group IB metal, coefficient of drug interaction (CDI) from relative growth
Assay type: cell-based
Conditions: for CDI (coefficient of drug interaction), gold + biocide: Gold (μM); for CDI (coefficient of drug interaction), copper mixed with biocide: Copper (mM) section, 2nd of 3 copper concentrations (value not shown)
[1] = Copper (mM), 1st of 3 copper concentrations (head line not shown), biocide concentration 1 of 4, E. coli
[2] = Copper (mM), 1st of 3 copper concentrations (head line not shown), biocide concentration 2 of 4, E. coli
[3] = Copper (mM), 1st of 3 copper concentrations (head line not shown), biocide concentration 3 of 4, E. coli
[4] = Copper (mM), 1st of 3 copper concentrations (head line not shown), biocide concentration 4 of 4, E. coli
[5] = Copper (mM), 2nd of 3 copper concentrations (head line not shown), biocide concentration 1 of 4, E. coli
[6] = Copper (mM), 2nd of 3 copper concentrations (head line not shown), biocide concentration 2 of 4, E. coli
[7] = Copper (mM), 2nd of 3 copper concentrations (head line not shown), biocide concentration 3 of 4, E. coli
[8] = Copper (mM), 2nd of 3 copper concentrations (head line not shown), biocide concentration 4 of 4, E. coli
[9] = Copper (mM), 3rd of 3 copper concentrations (head line not shown), biocide concentration 1 of 4, E. coli
[10] = Copper (mM), 3rd of 3 copper concentrations (head line not shown), biocide concentration 2 of 4, E. coli
[11] = Copper (mM), 3rd of 3 copper concentrations (head line not shown), biocide concentration 3 of 4, E. coli
[12] = Copper (mM), 3rd of 3 copper concentrations (head line not shown), biocide concentration 4 of 4, E. coli
[13] = first of 3 gold concentrations, biocide concentration 4 of 4
[14] = second of 3 gold concentrations, biocide concentration 4 of 4
[15] = third of 3 gold concentrations, biocide concentration 4 of 4
[16] = Silver 0.5 μM, biocide concentration 1 of 4
[17] = Silver 0.5 μM, biocide concentration 2 of 4
[18] = Silver 0.5 μM, biocide concentration 4 of 4
[19] = Silver 1.0 μM, biocide concentration 1 of 4
[20] = Silver 1.0 μM, biocide concentration 2 of 4
[21] = Silver 1.0 μM, biocide concentration 3 of 4
[22] = Silver 1.0 μM, biocide concentration 4 of 4
[23] = Silver 5.0 μM, biocide concentration 1 of 4
[24] = Silver 5.0 μM, biocide concentration 2 of 4
[25] = Silver 5.0 μM, biocide concentration 3 of 4
[26] = Silver 5.0 μM, biocide concentration 4 of 4
[27] = Gold section of Table 5, first of three gold concentrations (μM, value not given), biocide concentration 3 of 4
[28] = Gold section of Table 5, first of three gold concentrations (μM, value not given), biocide concentration 4 of 4
[29] = Gold section of Table 5, second of three gold concentrations (μM, value not given), biocide concentration 3 of 4
[30] = Gold section of Table 5, second of three gold concentrations (μM, value not given), biocide concentration 4 of 4
[31] = Gold section of Table 5, third of three gold concentrations (μM, value not given), biocide concentration 3 of 4
[32] = Gold section of Table 5, third of three gold concentrations (μM, value not given), biocide concentration 4 of 4
[33] = Silver 0.5 μM, biocide concentration 3 of 4
[34] = Silver 0.5 μM, 4th of four biocide concentrations, E. coli
[35] = Silver 1.0 μM, 4th of four biocide concentrations, E. coli
[36] = Silver 5.0 μM, 4th of four biocide concentrations, E. coli

For CC1(C)S[C@@H]2[C@H](NC(=O)[C@H](NC(=O)N3CCNC3=O)c3ccccc3)C(=O)N2[C@H]1C(=O)O [aziocillin], which “CDI (coefficient of drug interaction)” value [1] is on record?
Its value is 0.97.

And the “CDI (coefficient of drug interaction)” value [2]?
Its value is 1.05.

And the “CDI (coefficient of drug interaction)” value [3]?
Its value is 1.08.

What about the “CDI (coefficient of drug interaction)” value [4] of the same molecule?
Its value is “Tox”.

And the “CDI (coefficient of drug interaction)” value [5]?
Its value is 0.94.

What about the “CDI (coefficient of drug interaction)” value [6] of the same molecule?
The value was 0.90.

What about the “CDI (coefficient of drug interaction)” value [7] of the same molecule?
The value was 0.97.

What about the “CDI (coefficient of drug interaction)” value [8] of the same molecule?
The value was “Tox”.

What about the “CDI (coefficient of drug interaction)” value [9] of the same molecule?
Its value is 0.78.

And the “CDI (coefficient of drug interaction)” value [10]?
The value was 0.70.

What about the “CDI (coefficient of drug interaction)” value [11] of the same molecule?
Its value is 0.61.

What about the “CDI (coefficient of drug interaction)” value [12] of the same molecule?
The value was “Tox”.

What about the “CDI (coefficient of drug interaction), gold + biocide” value (“CDI … gold + biocide” for short) (first of 3 gold concentrations, biocide concentration 1 of 4) of the same molecule?
The value was 0.92.

And the “CDI … gold + biocide” value (first of 3 gold concentrations, biocide concentration 2 of 4)?
Its value is 1.01.

And the “CDI … gold + biocide” value (first of 3 gold concentrations, biocide concentration 3 of 4)?
Its value is 0.94.

And the “CDI … gold + biocide” value [13]?
Its value is 0.64.

And the “CDI … gold + biocide” value (second of 3 gold concentrations, biocide concentration 1 of 4)?
Its value is 1.05.

What about the “CDI … gold + biocide” value (second of 3 gold concentrations, biocide concentration 2 of 4) of the same molecule?
Its value is 1.09.

And the “CDI … gold + biocide” value (second of 3 gold concentrations, biocide concentration 3 of 4)?
The value was 0.89.

And the “CDI … gold + biocide” value [14]?
The value was 0.64.

And the “CDI … gold + biocide” value (third of 3 gold concentrations, biocide concentration 1 of 4)?
Its value is 0.94.

What about the “CDI … gold + biocide” value (third of 3 gold concentrations, biocide concentration 2 of 4) of the same molecule?
The value was 0.93.

What about the “CDI … gold + biocide” value (third of 3 gold concentrations, biocide concentration 3 of 4) of the same molecule?
Its value is 0.93.

And the “CDI … gold + biocide” value [15]?
Its value is 0.47.

What about the CDI [16] of the same molecule?
Its CDI is 0.90.

And the CDI [17]?
The CDI was 1.07.

What about the CDI [18] of the same molecule?
The CDI was “Tox”.

And the CDI [19]?
Its CDI is 0.97.

What about the CDI [20] of the same molecule?
Its CDI is 0.90.

What about the CDI [21] of the same molecule?
The CDI was 1.14.

What about the CDI [22] of the same molecule?
Its CDI is “Tox”.

And the CDI [23]?
Its CDI is 1.03.

What about the CDI [24] of the same molecule?
The CDI was 1.08.

And the CDI [25]?
The CDI was 0.70.

What about the CDI [26] of the same molecule?
Its CDI is “Tox”.

For CN(CC[C@H](N)CC(=O)N[C@H]1C=C[C@H](n2ccc(N)nc2=O)O[C@@H]1C(=O)O)C(=N)N [blasticidin S], which “CDI (coefficient of drug interaction)” value [1] is on record?
Its value is 1.05.

What about the “CDI (coefficient of drug interaction)” value [2] of the same molecule?
The value was 1.14.

And the “CDI (coefficient of drug interaction)” value [3]?
The value was 0.95.

And the “CDI (coefficient of drug interaction)” value [4]?
The value was “Tox”.

What about the “CDI (coefficient of drug interaction)” value [5] of the same molecule?
Its value is 0.90.

And the “CDI (coefficient of drug interaction)” value [6]?
Its value is 0.96.

What about the “CDI (coefficient of drug interaction)” value [7] of the same molecule?
Its value is “Tox”.

And the “CDI (coefficient of drug interaction)” value [8]?
Its value is “Tox”.

And the “CDI (coefficient of drug interaction)” value [9]?
Its value is 0.71.

What about the “CDI (coefficient of drug interaction)” value [10] of the same molecule?
The value was 0.65.

What about the “CDI (coefficient of drug interaction)” value [11] of the same molecule?
Its value is 0.49.

And the “CDI (coefficient of drug interaction)” value [12]?
The value was “Tox”.

And the “CDI (coefficient of drug interaction)” value (Gold section of Table 5, first of three gold concentrations (μM, value not given), biocide concentration 1 of 4)?
The value was 1.05.

What about the “CDI (coefficient of drug interaction)” value (Gold section of Table 5, first of three gold concentrations (μM, value not given), biocide concentration 2 of 4) of the same molecule?
The value was 0.95.

And the “CDI (coefficient of drug interaction)” value [27]?
The value was 0.97.

What about the “CDI (coefficient of drug interaction)” value [28] of the same molecule?
Its value is “Tox”.

What about the “CDI (coefficient of drug interaction)” value (Gold section of Table 5, second of three gold concentrations (μM, value not given), biocide concentration 1 of 4) of the same molecule?
The value was 1.06.

What about the “CDI (coefficient of drug interaction)” value (Gold section of Table 5, second of three gold concentrations (μM, value not given), biocide concentration 2 of 4) of the same molecule?
Its value is 1.08.

What about the “CDI (coefficient of drug interaction)” value [29] of the same molecule?
Its value is 1.11.

What about the “CDI (coefficient of drug interaction)” value [30] of the same molecule?
Its value is “Tox”.

And the “CDI (coefficient of drug interaction)” value (Gold section of Table 5, third of three gold concentrations (μM, value not given), biocide concentration 1 of 4)?
Its value is 1.09.

And the “CDI (coefficient of drug interaction)” value (Gold section of Table 5, third of three gold concentrations (μM, value not given), biocide concentration 2 of 4)?
Its value is 1.06.

And the “CDI (coefficient of drug interaction)” value [31]?
Its value is 1.11.

What about the “CDI (coefficient of drug interaction)” value [32] of the same molecule?
Its value is “Tox”.

What about the CDI [16] of the same molecule?
Its CDI is 1.04.

What about the CDI [17] of the same molecule?
The CDI was 0.90.

And the CDI [33]?
The CDI was 0.92.

And the CDI [18]?
Its CDI is “Tox”.

And the CDI [19]?
The CDI was 1.01.

And the CDI [20]?
Its CDI is 1.02.

What about the CDI [21] of the same molecule?
The CDI was “Tox”.

And the CDI [22]?
Its CDI is “Tox”.

What about the CDI [23] of the same molecule?
The CDI was 1.52.

What about the CDI [24] of the same molecule?
Its CDI is 1.40.

And the CDI [25]?
Its CDI is “Tox”.

And the CDI [26]?
Its CDI is “Tox”.

Which results are given for O=C1C2CC=CCC2C(=O)N1SC(Cl)(Cl)Cl (stereo not drawn) [captan]?
CDI (coefficient of drug interaction), silver + biocide [34]: Tox; CDI (coefficient of drug interaction), silver + biocide [35]: Tox; CDI (coefficient of drug interaction), silver + biocide [36]: Tox

Cc1cc(O)cc(C)c1Cl [chloroxylenol] was tested. Which “CDI (coefficient of drug interaction), copper mixed with biocide” value (“CDI … with biocide” below) (2nd of four biocide concentrations) did it give?
Its value is “Tox”.

And the “CDI … with biocide” value (3rd of four biocide concentrations)?
Its value is “Tox”.

What about the “CDI … with biocide” value (4th of four biocide concentrations) of the same molecule?
Its value is “Tox”.

What about the “CDI (coefficient of drug interaction)” value [27] of the same molecule?
The value was “Tox”.

And the “CDI (coefficient of drug interaction)” value [28]?
Its value is “Tox”.

And the “CDI (coefficient of drug interaction)” value [29]?
Its value is “Tox”.

And the “CDI (coefficient of drug interaction)” value [30]?
The value was “Tox”.

What about the “CDI (coefficient of drug interaction)” value [31] of the same molecule?
Its value is “Tox”.

What about the “CDI (coefficient of drug interaction)” value [32] of the same molecule?
Its value is “Tox”.

What about the “CDI (coefficient of drug interaction), silver + biocide” value (shortened to “CDI … silver + biocide”) (Silver 0.5 μM, 3rd of four biocide concentrations, E. coli) of the same molecule?
The value was “Tox”.

What about the “CDI … silver + biocide” value [34] of the same molecule?
Its value is “Tox”.

And the “CDI … silver + biocide” value (Silver 1.0 μM, 2nd of four biocide concentrations, E. coli)?
The value was “Tox”.

What about the “CDI … silver + biocide” value (Silver 1.0 μM, 3rd of four biocide concentrations, E. coli) of the same molecule?
The value was “Tox”.

And the “CDI … silver + biocide” value [35]?
Its value is “Tox”.

And the “CDI … silver + biocide” value (Silver 5.0 μM, 2nd of four biocide concentrations, E. coli)?
The value was “Tox”.

And the “CDI … silver + biocide” value (Silver 5.0 μM, 3rd of four biocide concentrations, E. coli)?
Its value is “Tox”.

And the “CDI … silver + biocide” value [36]?
The value was “Tox”.

Cc1onc(-c2ccccc2Cl)c1C(=O)N[C@@H]1C(=O)N2[C@@H]1SC(C)(C)[C@@H]2C(=O)O [cloxacillin] was tested. Which “CDI (coefficient of drug interaction)” value [4] did it give?
The value was “Tox”.

What about the “CDI (coefficient of drug interaction)” value [7] of the same molecule?
Its value is “Tox”.

What about the “CDI (coefficient of drug interaction)” value [8] of the same molecule?
Its value is “Tox”.

And the “CDI (coefficient of drug interaction)” value [12]?
The value was “Tox”.

And the “CDI … gold + biocide” value [13]?
Its value is “Tox”.

And the “CDI … gold + biocide” value [14]?
Its value is “Tox”.

What about the “CDI … gold + biocide” value [15] of the same molecule?
Its value is “Tox”.

And the CDI [33]?
Its CDI is “Tox”.

What about the CDI [18] of the same molecule?
The CDI was “Tox”.

And the CDI [21]?
Its CDI is “Tox”.

What about the CDI [22] of the same molecule?
The CDI was “Tox”.

What about the CDI [25] of the same molecule?
Its CDI is “Tox”.

And the CDI [26]?
The CDI was “Tox”.

For O=c1ccc2ccccc2o1 [coumarin], which “CDI (coefficient of drug interaction)” value (Gold 50 μM, biocide concentration 4 of 4, E. coli) is on record?
Its value is “Tox”.
